Results reported in patent US9980928B2, “Hydroxy aliphatic substituted phenyl aminoalkyl ether derivatives” (PROUS INSTITUTE FOR BIOMEDICAL RESEARCH, S.A., priority 2012, dated 2018).

Assays:
mice [1] = experiment: Tail suspension assay in mice; assay type: in vivo
Description: Another method of measuring antidepressant activity that may be used to evaluate the compounds of the present invention is the tail suspension test in mice described in Vogel, H. G. and Vogel, W. H. (Eds.) Drug Discovery and Evaluation, Springer-Verlag Berlin Heidelberg, 1997) pp. 304-3059). The mouse tail suspension assay was conducted 60 minutes after dosing. The duration of immobility was recorded for a period of 5 minutes after tail suspension was initiated, and reduction in the duration of immobility by ≥50% relative to the control group indicated antidepressant activity. Statistical analysis was also performed by using one-way ANOVA followed by Dunnett's test to compare the data of test compound-treated and vehicle control groups. Significance was considered to be P<0.05.

[2] = biological target: T1, norepinephrine (NE) transporter (Homo sapiens, UniProt P23975); experiment: Norepinephrine transporter binding radioligand inhibition ([3H]-nisoxetine); conditions: concentration 10 μM
T1 construct: expressed in transfected cells; host or cells: CHO cells
Description: The norepinephrine (NE) transporter removes NE from the synaptic cleft. The NE transporter terminates the effects of […], enabling its reuse by the presynaptic neuron. The in vitro binding of the compounds of the invention to the NE transporter and the percent inhibition of control-specific binding ([^3H]-nisoxetine in human recombinant CHO cells) is determined following the method described in Pacholczyk et al., (Nature 1991, 350(6316): 350-4.

serotonin transporter = biological target: T2, serotonin transporter (Homo sapiens, UniProt P31645); experiment: Serotonin transporter binding radioligand inhibition ([3H]-imipramine); conditions: concentration 10 μM; read-out: serotonin binding inhibition
T2 construct: expressed in transfected cells; host or cells: CHO cells
Description: The serotonin transporter removes serotonin from the synaptic deft. The serotonin transporter terminates the effects of […], enabling its reuse by the presynaptic neuron.

uptake of norepinephrine = uptake of norepinephrine (Homo sapiens, UniProt P23975); experiment: Uptake inhibition of norepinephrine, cellular assay; assay type: cell-based; conditions: read-out: Norepinephrine reuptake inhibition (IC50 μM)
Description: (§1) The effect of the compounds of the present invention as inhibitors of the uptake of norepinephrine and serotonin in cellular assays at concentrations that range from […] to 1 nM is determined following the methods described in Galli, A. et al. J Exp Biol 1995, 198(Pt. 10): 2197-212 and Gu, H. et al. J Biol Chem. 1994, 269(10):7124-30.

uptake of serotonin = uptake of serotonin (Homo sapiens, UniProt P31645); experiment: Uptake inhibition of serotonin, cellular assay; assay type: cell-based; conditions: read-out: Serotonin reuptake inhibition (IC50 μM)
Description: as §1

mice [3] = experiment: Mouse formalin assay (analgesic activity); assay type: in vivo
Description: The analgesic activity of the compounds of the present invention is determined making use of the mouse formalin test described in Hunskaar, S. J Neurosci Methods 1985, 14(1): 69-76. The hind paw licking time was measured at 5-minute intervals for 30 minutes following subplantar injection of formalin (0.02 mL, 2%). Statistical analysis using one-way ANOVA followed by Dunnett's test was applied for comparison between the test substance-treated and vehicle control groups. P<0.05 was considered significant.

CHO cells = experiment: In vitro MTT toxicity screen; assay type: cell-based, Chinese hamster; conditions: 10 μM, compared to positive control group (10% DMSO)
Description: The toxicity of the compounds of the present invention at a concentration of 10 μM has been explored using the tetrazolium salt (MTT) method in CHO cells. The MTT method involving conversion of MTT to colored formazan by cells serves as an indirect measurement of cell growth/cell kill, as reported by several groups (Paimela, T. et al. Mol Vis 2012; 18: 1189-96; Hansen, M. B. et al. J Immunol Methods 1989, 119(2): 203-10).
In the MTT assay, cytotoxicity is correlated with the color of MTT and is measured with a spectrophotometer at the wavelength of 570 nm. Briefly, fresh MTT solution (10 mg/mL in 1×PBS) was added (1:20 volume of medium) and the cells were incubated for 1.5 hours. The cells were lysed and purple formazan was dissolved into the solution by overnight incubation with MTT lysis buffer (20% SDS, 50% N,N-dimethylformamide, 2% acetic acid, 25 mM HCl; the volume of medium+volume of MTT salt solution).

[4] = system: phosphorylation of CREB in SN56 and T48 cell lines; experiment: CREB phosphorylation in SN56 and T48 cell lines (western blot); assay type: cell-based, mouse; conditions: both cell lines (SN56 and T48)
Description: The purpose of the study was to assess the acute biochemical neuronal changes in neurotrophin and synaptic plasticity signaling in vitro after the incubation in SN56 (fusion of mouse septal area cells and neuroblastoma cells with no TRKB expression) and T48 (SN56 stable transfected to express TrkB) cell lines the Examples 3 and 4. These changes were studied with a western blot assessment of Erk, Akt, PLC, Trkb, BDNF and CREB (cAMP response element-binding protein) phosphorilation assays.
Proteins were denatured in 62.5 mM Tris-HCl (pH 6.8), 2% (w/v) SDS, 10% glycerol, 140 mM β-mercaptoethanol and 0.1% (w/v) bromophenol blue, heated at 100° C. for 5 min (except for VGLUT1 blotting: 10 minutes 60° C.) and resolved in denaturing polyacrylamide gels (8% acrylamide); proteins were transferred to a nitrocellulose membrane), and washed twice in Tris-buffered saline containing 0.1% Tween-20 (TBS-T). […]
After primary antibody incubation, membranes were washed with TBS-T and incubated for 1 h at room temperature with the appropriated horseradish peroxidase-conjugated secondary antibody (Promega, Madison, Wis., USA), and the reaction was finally visualized with the Western Blotting Luminol Reagent (Santa Cruz Biotechnology, Santa Cruz, Calif., USA). Western blot replicates were scanned and quantified using a computer-assisted densitometric analysis. […]

mice [5] = experiment: Novel object recognition test (acute); assay type: in vivo; conditions: 3 mg/kg i.p., same experimental conditions
Description: The novel object recognition task is used to evaluate cognition, particularly memory recognition, in rodent models of CNS disorders. This test is based on the spontaneous tendency of rodents to spend more time exploring a novel object than a familiar one. The choice to explore the novel object reflects the use of learning and memory recognition. The novel object recognition test provides a measure of activity in a novel environment allowing tests for emotional reactivity and also for novel object recognition, a cognitive domain that depends on hippocampal functional integrity. Animals were habituated to the presence of two identical objects (LEGO® pieces) during a single session of 5 minutes (training) and sniffing (exploration of an object was defined as pointing the nose to the object at a distance of <1 cm and/or touching it with the nose). Mice were injected with saline or with the compound to be tested and returned to their home cages. At 24 hours the animals were introduced in the same open field again with the same two items (familiarization), and again exploration in each of them for 5 minutes was registered. One hour later, the mice were retested in the open field for 3 minutes, but this time with one of the “familiar” objects replaced by a new one (test). To analyze cognitive performance, a discrimination index was calculated as the difference in time exploring the novel and familiar object, expressed as the ratio of the total time spent exploring both objects, which made it possible to adjust for any differences in total exploration time. This test is useful for assessing impaired cognitive ability in transgenic strains of mice and evaluating novel chemical entities for their effect on cognition (Zhang, R. J Alzheimers Dis 2012, 31(4): 801-12). […] Neuroplasticity 2007, 26496).

[6] = biological target: T3, Human dopamine transporters (Homo sapiens, UniProt Q01959); experiment: Binding to the dopamine transporter ([125I]-RTI-55); conditions: reference compound; read-out: IC50, [125I]-RTI-55 binding to DAT
T3 construct: expressed in transfected cells; host or cells: CHO-K1 cells (membranes)
Description: Human dopamine transporters expressed in CHO—K1 cells are used in modified Tris-HCl buffer at pH 7.4. […] Non-specific binding is estimated in the presence of […] nomifensine.

[7] = 30 mg/kg oral, 60 minutes after dosing

T2 sequence (P31645 whole entry): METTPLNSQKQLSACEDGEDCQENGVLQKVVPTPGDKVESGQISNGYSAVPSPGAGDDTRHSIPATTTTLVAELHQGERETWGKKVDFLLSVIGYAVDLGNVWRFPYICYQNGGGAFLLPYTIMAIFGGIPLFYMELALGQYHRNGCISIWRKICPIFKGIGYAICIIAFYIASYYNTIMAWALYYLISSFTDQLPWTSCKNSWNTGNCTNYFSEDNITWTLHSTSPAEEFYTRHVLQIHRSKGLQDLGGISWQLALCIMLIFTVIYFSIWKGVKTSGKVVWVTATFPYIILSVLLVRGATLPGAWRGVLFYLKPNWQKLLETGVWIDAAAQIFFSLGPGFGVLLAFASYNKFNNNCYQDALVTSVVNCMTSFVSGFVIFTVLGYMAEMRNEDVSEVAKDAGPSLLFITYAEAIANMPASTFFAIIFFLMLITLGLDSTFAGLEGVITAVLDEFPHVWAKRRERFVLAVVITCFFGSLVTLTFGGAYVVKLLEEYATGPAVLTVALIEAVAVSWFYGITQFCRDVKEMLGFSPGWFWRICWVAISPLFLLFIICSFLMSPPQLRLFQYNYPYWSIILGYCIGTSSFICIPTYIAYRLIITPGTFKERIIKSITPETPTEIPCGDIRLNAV
uptake of serotonin, sequence (P31645 whole entry): as above
T1 sequence (P23975 whole entry): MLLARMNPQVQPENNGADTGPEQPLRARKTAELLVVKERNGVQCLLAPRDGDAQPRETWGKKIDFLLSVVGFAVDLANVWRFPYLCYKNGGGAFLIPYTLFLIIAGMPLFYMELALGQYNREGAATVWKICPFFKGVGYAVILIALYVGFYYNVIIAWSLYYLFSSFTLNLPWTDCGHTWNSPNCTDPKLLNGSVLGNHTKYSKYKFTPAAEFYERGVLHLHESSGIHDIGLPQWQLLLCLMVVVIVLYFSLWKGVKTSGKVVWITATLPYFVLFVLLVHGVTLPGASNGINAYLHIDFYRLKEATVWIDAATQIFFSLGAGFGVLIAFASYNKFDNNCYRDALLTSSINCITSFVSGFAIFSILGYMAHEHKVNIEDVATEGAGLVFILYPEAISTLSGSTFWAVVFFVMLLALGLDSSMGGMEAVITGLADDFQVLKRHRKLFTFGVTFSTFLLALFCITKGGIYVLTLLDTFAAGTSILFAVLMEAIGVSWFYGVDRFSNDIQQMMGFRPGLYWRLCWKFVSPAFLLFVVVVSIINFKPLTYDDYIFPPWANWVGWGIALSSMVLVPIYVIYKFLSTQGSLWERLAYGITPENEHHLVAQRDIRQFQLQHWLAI
uptake of norepinephrine, sequence (P23975 whole entry): as above
T3 sequence (Q01959 whole entry): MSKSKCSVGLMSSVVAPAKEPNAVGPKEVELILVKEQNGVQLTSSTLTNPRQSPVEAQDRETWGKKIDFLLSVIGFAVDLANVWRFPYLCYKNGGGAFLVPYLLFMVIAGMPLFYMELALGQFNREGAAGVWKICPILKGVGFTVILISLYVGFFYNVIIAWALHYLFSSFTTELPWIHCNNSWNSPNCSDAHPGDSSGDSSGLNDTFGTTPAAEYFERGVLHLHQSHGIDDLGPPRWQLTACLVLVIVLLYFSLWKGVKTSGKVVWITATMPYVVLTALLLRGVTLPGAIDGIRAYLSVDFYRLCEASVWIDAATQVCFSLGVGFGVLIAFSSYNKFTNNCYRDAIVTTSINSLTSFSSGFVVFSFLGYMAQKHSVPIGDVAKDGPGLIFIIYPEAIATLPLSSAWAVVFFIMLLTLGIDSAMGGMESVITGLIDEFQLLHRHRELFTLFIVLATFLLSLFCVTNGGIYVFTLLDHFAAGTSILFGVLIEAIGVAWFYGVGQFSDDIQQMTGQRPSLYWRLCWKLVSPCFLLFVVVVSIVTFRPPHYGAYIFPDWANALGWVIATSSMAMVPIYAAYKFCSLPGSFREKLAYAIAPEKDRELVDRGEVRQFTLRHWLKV

SMILES	antidepressant effect (duration of immobility) (mice [1]; [7])	inhibition at 10 µM [2] [%]	inhibition at 10 µM (serotonin transporter) [%]	IC50 (uptake of norepinephrine) [µM]	IC50 (uptake of serotonin) [µM]	antidepressant effect (duration of immobility) (mice [1]; 90 mg/kg p.o.)	analgesic activity following formalin challenge (hind paw licking time) (mice [3]; 90 mg/kg oral)	cell viability (MTT) (CHO cells) [%]	phosphorylation of CREB [4]	analgesic activity following formalin challenge (hind paw licking time) (mice [3]; 30 mg/kg oral)	melting point [°C]	cognitive improvement (mice [5])	IC50 [6] [nM]
CNCCCN1c2ccccc2CCc2ccccc21 [Desipramine, reference compound]	significant effect												
CNCC[C@@H](Oc1ccc(CCO)cc1)c1ccccc1.Cl [Example 3, (R)-2-[4-[3-(Methylamino)-1-phenylpropoxy]phenyl]ethanol hydrochloride]		65 to 90	68 to 82	1.6 to 2.9	2.5 to 4.8	active	active	100	increase significantly				
CNCC[C@H](Oc1ccc(CCO)cc1)c1ccccc1.Cl [Example 4, (S)-2-[4-[3-(Methylamino)-1-phenylpropoxy]phenyl]ethanol hydrochloride]	significant activity	65 to 90	68 to 82	1.6 to 2.9	2.5 to 4.8	active	active	100	increase significantly	active			
Cl.NCCC(Oc1ccc(CCO)cc1)c1ccccc1 (stereo not drawn) [Example 12, 2-[4-(3-Amino-1-phenylpropoxy)phenyl]ethanol hydrochloride]		79	78	2.7	1						68 to 70		
Cl.OCCc1ccc(OCC2CNCCO2)cc1 (stereo not drawn) [Example 18, 2-[4-(Morpholin-2-ylmethoxy)phenyl]ethanol hydrochloride]		65 to 90	68 to 82	1.6 to 2.9	2.5 to 4.8		demonstrated analgesic activity	100			163 to 169		
C#CCN[C@@H]1CCc2ccccc21 [rasagiline, reference compound]												absence of cognitive improvement	
COC(=O)[C@H]1[C@H]2C[C@@H]3c4[nH]c5cc(OC)ccc5c4CCN3C[C@H]2C[C@@H](OC(=O)c2cc(OC)c(OC)c(OC)c2)[C@@H]1OC [reserpine, reference compound]													1300
